Results from the supplement of paper PMC10307832.

Legend:
Test in all cases: relative viability (nuclei count vs DMSO), 5 days (fraction); higher = more cells survive
[1] = tested on: NCI-H520
Method in brief: (§1)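 Lung cancer cell lines, seeded in 1536-well plates, were treated the following day by pin tool with a single drug or with five library-drug doses (not always all listed) in √10 steps on top of a fixed anchor-drug dose. Cells were fixed and nuclei stained in one step after 5 days, and nuclei were counted. Relative viability is the nuclei count for treated wells divided by that for vehicle wells, reported as medians of duplicate plates.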

[2] = tested on: PC-14
Method in brief: as §1

[3] = tested on: NCI-H2347
Method in brief: as §1

[4] = tested on: LXF-289
Method in brief: as §1

[5] = tested on: NCI-H1915
Method in brief: as §1

[6] = tested on: NCI-H322M
Method in brief: as §1

[7] = tested on: NCI-H1755
Method in brief: as §1

[8] = tested on: NCI-H3122
Method in brief: as §1

[9] = tested on: NCI-H727
Method in brief: as §1

[10] = tested on: NCI-H1651
Method in brief: as §1

[11] = tested on: NCI-H460
Method in brief: as §1

[12] = tested on: NCI-H1792
Method in brief: as §1

[13] = tested on: NCI-H441
Method in brief: as §1

[14] = tested on: NCI-H1355
Method in brief: as §1

[15] = tested on: SK-MES-1
Method in brief: as §1

[16] = tested on: RERF-LC-KJ
Method in brief: as §1

[17] = tested on: NCI-H596
Method in brief: as §1

Nc1ccn([C@@H]2O[C@H](CO)[C@@H](O)[C@@H]2O)c(=O)n1 [Cytarabine] + CC1(C)CCC(c2ccc(Cl)cc2)=C(CN2CCN(c3ccc(C(=O)NS(=O)(=O)c4ccc(N[C@H](CCN5CCOCC5)CSc5ccccc5)c(S(=O)(=O)C(F)(F)F)c4)cc3)CC2)C1 [Navitoclax] (partner 0.5 µM) gave a relative viability ([1]; first compound 0.005 µM) of 0.955, a relative viability ([1]; first compound 0.01581 µM) of 0.902 and a relative viability ([1]; first compound 0.05 µM) of 1.14. The relative viability ([1]; first compound 0.1581 µM) was 0.904, the relative viability ([1]; first compound 0.5 µM) was 0.781 and the relative viability ([2]; first compound 0.005 µM) was 0.918. It also gave a relative viability ([2]; first compound 0.01581 µM) of 1.03, a relative viability ([2]; first compound 0.05 µM) of 0.803 and a relative viability ([2]; first compound 0.1581 µM) of 0.314. The relative viability ([2]; first compound 0.5 µM) was 0.119, the relative viability ([3]; first compound 0.005 µM) was 0.911 and the relative viability ([3]; first compound 0.01581 µM) was 0.786. The relative viability ([3]; first compound 0.05 µM) was 0.635, the relative viability ([3]; first compound 0.1581 µM) was 0.531 and the relative viability ([3]; first compound 0.5 µM) was 0.449. The relative viability ([4]; first compound 0.005 µM) was 0.805, the relative viability ([4]; first compound 0.01581 µM) was 0.944 and the relative viability ([4]; first compound 0.05 µM) was 0.564. For the same compound, the relative viability ([4]; first compound 0.1581 µM) was 0.395, the relative viability ([4]; first compound 0.5 µM) was 0.253 and the relative viability ([5]; first compound 0.005 µM) was 0.799. For the same compound, the relative viability ([5]; first compound 0.01581 µM) was 0.719, the relative viability ([5]; first compound 0.05 µM) was 0.714 and the relative viability ([5]; first compound 0.1581 µM) was 0.411. For the same compound, the relative viability ([5]; first compound 0.5 µM) was 0.386, the relative viability ([6]; first compound 0.005 µM) was 0.846 and the relative viability ([6]; first compound 0.01581 µM) was 0.787. The relative viability ([6]; first compound 0.05 µM) was 0.561, the relative viability ([6]; first compound 0.1581 µM) was 0.46 and the relative viability ([6]; first compound 0.5 µM) was 0.366. The relative viability ([7]; first compound 0.005 µM) was 0.914, the relative viability ([7]; first compound 0.01581 µM) was 0.821 and the relative viability ([7]; first compound 0.05 µM) was 0.583. The relative viability ([7]; first compound 0.1581 µM) was 0.201, the relative viability ([7]; first compound 0.5 µM) was 0.194 and the relative viability ([8]; first compound 0.005 µM) was 0.968. For the same compound, the relative viability ([8]; first compound 0.01581 µM) was 0.877, the relative viability ([8]; first compound 0.05 µM) was 0.876 and the relative viability ([8]; first compound 0.1581 µM) was 0.682. The relative viability ([8]; first compound 0.5 µM) was 0.457, the relative viability ([9]; first compound 0.005 µM) was 0.372 and the relative viability ([9]; first compound 0.01581 µM) was 0.295. It also gave a relative viability ([9]; first compound 0.05 µM) of 0.238, a relative viability ([9]; first compound 0.1581 µM) of 0.181 and a relative viability ([9]; first compound 0.5 µM) of 0.182. The relative viability ([10]; first compound 0.005 µM) was 0.993, the relative viability ([10]; first compound 0.01581 µM) was 1.18 and the relative viability ([10]; first compound 0.05 µM) was 1.24. The relative viability ([10]; first compound 0.1581 µM) was 0.625, the relative viability ([10]; first compound 0.5 µM) was 0.3 and the relative viability ([11]; first compound 0.005 µM) was 1.06. For the same compound, the relative viability ([11]; first compound 0.01581 µM) was 1.16, the relative viability ([11]; first compound 0.05 µM) was 0.323 and the relative viability ([11]; first compound 0.1581 µM) was 0.0167. The relative viability ([11]; first compound 0.5 µM) was 0.0173, the relative viability ([12]; first compound 0.005 µM) was 0.339 and the relative viability ([12]; first compound 0.01581 µM) was 0.55. It also gave a relative viability ([12]; first compound 0.05 µM) of 0.223, a relative viability ([12]; first compound 0.1581 µM) of 0.304 and a relative viability ([12]; first compound 0.5 µM) of 0.246. For the same compound, the relative viability ([13]; first compound 0.005 µM) was 0.547, the relative viability ([13]; first compound 0.01581 µM) was 0.648 and the relative viability ([13]; first compound 0.05 µM) was 0.556. It also gave a relative viability ([13]; first compound 0.1581 µM) of 0.176, a relative viability ([13]; first compound 0.5 µM) of 0.161 and a relative viability ([14]; first compound 0.005 µM) of 0.897. The relative viability ([14]; first compound 0.01581 µM) was 0.811, the relative viability ([14]; first compound 0.05 µM) was 0.819 and the relative viability ([14]; first compound 0.1581 µM) was 0.325. The relative viability ([14]; first compound 0.5 µM) was 0.203, the relative viability ([15]; first compound 0.005 µM) was 0.957 and the relative viability ([15]; first compound 0.01581 µM) was 0.869. The relative viability ([15]; first compound 0.05 µM) was 0.408, the relative viability ([15]; first compound 0.1581 µM) was 0.22 and the relative viability ([15]; first compound 0.5 µM) was 0.178. For the same compound, the relative viability ([16]; first compound 0.005 µM) was 0.772, the relative viability ([16]; first compound 0.01581 µM) was 1.02 and the relative viability ([16]; first compound 0.05 µM) was 1.08. The relative viability ([16]; first compound 0.1581 µM) was 0.509, the relative viability ([16]; first compound 0.5 µM) was 0.325 and the relative viability ([17]; first compound 0.005 µM) was 0.874. It also gave a relative viability ([17]; first compound 0.01581 µM) of 0.894, a relative viability ([17]; first compound 0.05 µM) of 0.611 and a relative viability ([17]; first compound 0.1581 µM) of 0.558. For the same compound, the relative viability ([17]; first compound 0.5 µM) was 0.413.
